Test results from the supplement of paper PMC10627819.

How the values were obtained:
[1] = tested on: B. subtilis 168; assay: fitness (endpoint OD595 vs no drug) (fraction); higher = more growth
Procedure, shortened: (§1)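 At 37 °C, bacteria in TSB, LB Lennox or CY were grown in 384-well plates from a starting OD595 of 0.01. OD595 was measured every 30 min for 14 h, with the first reading used as background. Fitness is the optical density at the switch to stationary phase as a fraction of the robust mean of no-drug control wells, capped at 1.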

[2] = tested on: S. aureus DSM 20231; assay: as above
Procedure, shortened: as §1

[3] = tested on: S. aureus Newman; assay: as above
Procedure, shortened: as §1

[4] = tested on: S. pneumoniae D39V; assay: as above
Procedure, shortened: as §1

[5] = tested on: B. subtilis 168; assay: Bliss interaction score (quartile over a dose matrix) (fitness difference); higher = more antagonism (negative = synergy)
Procedure, shortened: (§2)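 Values were capped at 1 after dividing OD595 at stationary-phase entry by the plate's robust no-drug mean. This ratio is fitness, and single-drug fitness was inferred from the combination data. The Bliss score is observed minus product-expected fitness, given as quartiles over technical, biological and donor/recipient replicates.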

[6] = tested on: S. aureus DSM 20231; assay: as above
Procedure, shortened: as §2

[7] = tested on: S. aureus Newman; assay: as above
Procedure, shortened: as §2

[8] = tested on: S. pneumoniae D39V; assay: as above
Procedure, shortened: as §2
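For Bliss interaction score (quartile over a dose matrix) in this document: first quartile when negative (synergy) and third quartile when positive (antagonism).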

Cc1onc(-c2ccccc2)c1C(=O)N[C@@H]1C(=O)N2[C@@H]1SC(C)(C)[C@@H]2C(=O)O [Oxacillin] + CCN(CC)CCOC(=O)c1ccc(N)cc1 [Procaine]
fitness
Details	partner 85.5 µg/mL	partner 171 µg/mL	partner 342 µg/mL
[1], first compound 0.002 µg/mL	0.938	0.932	0.894
[1], first compound 0.004 µg/mL	0.966	0.913	0.911
[1], first compound 0.008 µg/mL	0.963	0.916	0.867
[2], first compound 0.0156 µg/mL	0.782	0.916	0.852
[2], first compound 0.0312 µg/mL	0.64	0.738	0.712
[2], first compound 0.0625 µg/mL	0.443	0.513	0.514
[3], first compound 0.0312 µg/mL	0.686	–	–
[4], first compound 0.01 µg/mL	≥ 1	≥ 1	0.998
[4], first compound 0.02 µg/mL	0.933	0.932	0.925
[4], first compound 0.04 µg/mL	–	–	0.497

fitness, [1], one replicate
Details	first compound 0.075 µg/mL	first compound 0.15 µg/mL	first compound 0.3 µg/mL
partner 85.5 µg/mL	0.637	0.0445	0.056
partner 171 µg/mL	0.535	0.0452	0.0565
partner 342 µg/mL	0.577	0.041	0.0536

Details	Bliss interaction score
[5]	0.0581
[6]	-0.0703
[7]	-0.0416
[8]	0.0938

Cc1onc(-c2ccccc2)c1C(=O)N[C@@H]1C(=O)N2[C@@H]1SC(C)(C)[C@@H]2C(=O)O [Oxacillin] + CN1C2=CC=CC=C2N=C3C1=CC=CC3=O [Pyocyanin]
Details	fitness
[1], first compound 0.002 µg/mL, partner 1.25 µg/mL	0.93
[1], first compound 0.002 µg/mL, partner 2.5 µg/mL	0.891
[1], first compound 0.002 µg/mL, partner 5 µg/mL	0.768
[1], first compound 0.004 µg/mL, partner 1.25 µg/mL	0.918
[1], first compound 0.004 µg/mL, partner 2.5 µg/mL	0.839
[1], first compound 0.004 µg/mL, partner 5 µg/mL	0.703
[1], first compound 0.008 µg/mL, partner 1.25 µg/mL	0.847
[1], first compound 0.008 µg/mL, partner 2.5 µg/mL	0.79
[1], first compound 0.008 µg/mL, partner 5 µg/mL	0.675
[2], first compound 0.0156 µg/mL, partner 1.25 µg/mL	0.761
[2], first compound 0.0156 µg/mL, partner 2.5 µg/mL	0.766
[2], first compound 0.0156 µg/mL, partner 5 µg/mL	0.493
[2], first compound 0.0312 µg/mL, partner 1.25 µg/mL	0.643
[2], first compound 0.0312 µg/mL, partner 2.5 µg/mL	0.635
[2], first compound 0.0312 µg/mL, partner 5 µg/mL	0.468
[2], first compound 0.0625 µg/mL, partner 1.25 µg/mL	0.48
[2], first compound 0.0625 µg/mL, partner 2.5 µg/mL	0.482
[2], first compound 0.0625 µg/mL, partner 5 µg/mL	0.362
[3], first compound 0.0156 µg/mL, partner 1.25 µg/mL	0.744
[3], first compound 0.0156 µg/mL, partner 2.5 µg/mL	0.683
[3], first compound 0.0156 µg/mL, partner 5 µg/mL	0.424
[3], first compound 0.0312 µg/mL, partner 1.25 µg/mL	0.625
[3], first compound 0.0312 µg/mL, partner 2.5 µg/mL	0.596
[3], first compound 0.0312 µg/mL, partner 5 µg/mL	0.336
[3], first compound 0.0625 µg/mL, partner 5 µg/mL	0.305
[4], first compound 0.01 µg/mL, partner 0.325 µg/mL	≥ 1
[4], first compound 0.01 µg/mL, partner 0.65 µg/mL	≥ 1
[4], first compound 0.01 µg/mL, partner 1.3 µg/mL	0.684
[4], first compound 0.02 µg/mL, partner 0.325 µg/mL	0.988
[4], first compound 0.02 µg/mL, partner 0.65 µg/mL	0.979
[4], first compound 0.02 µg/mL, partner 1.3 µg/mL	0.672
[4], first compound 0.04 µg/mL, partner 0.325 µg/mL	0.722
[4], first compound 0.04 µg/mL, partner 0.65 µg/mL	0.781
[4], first compound 0.04 µg/mL, partner 1.3 µg/mL	0.547

fitness, [1], one replicate
Details	first compound 0.075 µg/mL	first compound 0.15 µg/mL	first compound 0.3 µg/mL
partner 1.25 µg/mL	0.463	0.0474	0.0657
partner 2.5 µg/mL	0.404	0.0413	0.0539
partner 5 µg/mL	0.145	0.0518	0.0652

Details	Bliss interaction score
[5]	-0.0582
[6]	-0.0528
[7]	-0.0412
[8]	0.188

Cc1onc(-c2ccccc2)c1C(=O)N[C@@H]1C(=O)N2[C@@H]1SC(C)(C)[C@@H]2C(=O)O [Oxacillin] + CN(N=O)C(=O)N[C@@H](C=O)[C@@H](O)[C@H](O)[C@H](O)CO [Streptozotocin]
fitness, [1], one replicate
Details	first compound 0.002 µg/mL	first compound 0.004 µg/mL	first compound 0.008 µg/mL	first compound 0.075 µg/mL	first compound 0.15 µg/mL	first compound 0.3 µg/mL
partner 0.15 µg/mL	≥ 1	≥ 1	0.946	0.593	0.0403	0.0476
partner 0.3 µg/mL	0.98	≥ 1	0.983	0.377	0.0243	0.0338
partner 0.6 µg/mL	0.998	≥ 1	0.882	0.593	0.0217	0.0158

fitness
Details	first compound 0.01 µg/mL	first compound 0.0156 µg/mL	first compound 0.02 µg/mL	first compound 0.0312 µg/mL	first compound 0.04 µg/mL	first compound 0.0625 µg/mL
[2], partner 0.15 µg/mL	–	0.693	–	0.596	–	0.462
[2], partner 0.3 µg/mL	–	0.635	–	0.582	–	0.493
[2], partner 0.6 µg/mL	–	0.549	–	0.494	–	0.396
[3], partner 0.15 µg/mL	–	0.663	–	0.613	–	0.538
[3], partner 0.3 µg/mL	–	0.593	–	0.57	–	0.466
[3], partner 0.6 µg/mL	–	0.454	–	0.387	–	0.228
[4], partner 1.2 µg/mL	0.941	–	0.889	–	0.243	–
[4], partner 2.4 µg/mL	0.977	–	0.873	–	0.245	–
[4], partner 4.8 µg/mL	0.927	–	0.866	–	0.212	–

Details	Bliss interaction score
[5]	0.0537
[6]	-0.0548
[7]	-0.0656
[8]	-0.0748
